Activity calls are given as the source filed them. The calls are words filed in the database; no cut-off is given here.
Experiments:
[1] = molecular target: T1, Casein kinase II subunit alpha (Homo sapiens, UniProt P68400); assay: Displacement of ARC-1504/ARC-1513-5O from CK2alpha (unknown origin) (1 to 335 residues) after 15 to 60 mins by luminescence assay
[2] = molecular target: T2, Casein kinase II subunit alpha (Mus musculus) (UniProt Q60737); assay: Binding affinity to RFP-tagged CK2alpha in mouse NIH/3T3 cell lysate at 10 nM in presence of CK2 inhibitor CX-4945 by luminescence assay
T2 sequence (whole entry): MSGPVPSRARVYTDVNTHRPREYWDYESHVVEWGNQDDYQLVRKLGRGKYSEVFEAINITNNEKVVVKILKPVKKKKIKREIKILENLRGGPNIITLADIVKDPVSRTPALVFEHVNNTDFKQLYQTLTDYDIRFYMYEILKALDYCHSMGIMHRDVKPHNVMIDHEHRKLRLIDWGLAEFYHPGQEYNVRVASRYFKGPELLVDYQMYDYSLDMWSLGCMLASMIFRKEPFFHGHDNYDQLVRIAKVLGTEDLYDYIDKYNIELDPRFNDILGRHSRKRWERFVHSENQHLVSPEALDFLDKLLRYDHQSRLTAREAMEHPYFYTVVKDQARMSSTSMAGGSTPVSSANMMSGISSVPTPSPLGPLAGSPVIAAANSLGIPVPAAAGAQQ

[3] = molecular target: T1, Casein kinase II subunit alpha; assay: Displacement of ARC-1504/ARC-1513-5O from CK2alpha (unknown origin) (1 to 335 residues) assessed as maximal luminescence intensity of the complex after 15 to 60 mins by luminescence assay relative to ARC-1527
[4] = molecular target: T2, Casein kinase II subunit alpha (Mus musculus); assay: Binding affinity to RFP-tagged CK2alpha in mouse NIH/3T3 cell lysate at 10 nM by luminescence assay
[5] = molecular target: T1, Casein kinase II subunit alpha; assay: Displacement of ARC-1504/ARC-1513-5O from CK2alpha (unknown origin) (1 to 335 residues) assessed as photoluminescence lifetime using non-deoxygenated solution after 15 to 60 mins by luminescence assay
[6] = species: Mus musculus; assay: Binding affinity to CK2 in mouse NIH3T3 cell lysate at 10 nM in presence of CK2 inhibitor CX-4945 by luminescence assay
[7] = species: Mus musculus; assay: Binding affinity to CK2 in mouse NIH3T3 cell lysate at 10 nM by luminescence assay
[8] = molecular target: T1, Casein kinase II subunit alpha; assay: Displacement of ARC-1504/ARC-1513-5O from CK2alpha (unknown origin) (1 to 335 residues) assessed as photoluminescence lifetime using deoxygenated solution after 15 to 60 mins by luminescence assay
[9] = molecular target: Casein kinase II subunit alpha' (Homo sapiens) (UniProt P19784); assay: Displacement of ARC-1504/ARC-1513-5O from CK2alpha' (unknown origin) (1 to 335 residues) assessed as photoluminescence lifetime using non-deoxygenated solution after 15 to 60 mins by luminescence assay
[10] = molecular target: T2, Casein kinase II subunit alpha (Mus musculus); assay: Binding affinity to RFP-tagged CK2alpha in mouse NIH/3T3 cell lysate at 10 nM by luminescence assay relative to native CK2
[11] = molecular target: T1, Casein kinase II subunit alpha; assay: Displacement of 5-TAMRA-labeled ARC-1530 from CK2alpha (unknown origin) (1 to 335 residues) after 15 to 60 mins by luminescence assay

| Kd [1] | Activity [2] | fold change (FC) [3] | Activity [4] | Time [5] | Activity [6] | Activity [7] | Time [8] | Time [9] | fold change (FC) [10] | Activity [11] | Compound |
| --- | --- | --- | --- | --- | --- | --- | --- | --- | --- | --- | --- |
| 850 pM | inactive | 5300 | Active | 39 microsec | inactive | Active | 58 microsec | 39 microsec | 10 |  | CN(C)c1ccc2c(-c3ccc(C(=O)NCCCC[C@@H](NC(=O)[C@@H](CC(=O)O)NC(=O)[C@@H](CC(=O)O)NC(=O)[C@@H](CC(=O)O)NC(=O)[C@@H](CC(=O)O)NC(=O)[C@@H](CC(=O)O)NC(=O)[C@@H](CC(=O)O)NC(=O)CCCCCNC(=O)CCC(=O)Nc4ncc(-c5ccc(C(=O)O)cc5)[se]4)C(=O)O)cc3C(=O)[O-])c3ccc(=[N+](C)C)cc-3oc2c1 |
| 48000 pM |  |  |  |  |  |  |  |  |  |  | Nc1ncc(-c2ccc(C(=O)O)cc2)s1 |
| 340 pM |  | 46 |  | 55 microsec |  |  |  |  |  | Active | NCCCC[C@@H](NC(=O)[C@@H](CC(=O)O)NC(=O)[C@@H](CC(=O)O)NC(=O)[C@@H](CC(=O)O)NC(=O)[C@@H](CC(=O)O)NC(=O)[C@@H](CC(=O)O)NC(=O)[C@@H](CC(=O)O)NC(=O)CCCCCNC(=O)CCC(=O)Nc1ncc(-c2ccc(C(=O)O)cc2)[se]1)C(=O)O |
| 400 pM |  | 76 |  | 62 microsec |  |  | 165 microsec | 62 microsec |  |  | CN(C)c1ccc2c(-c3ccc(C(=O)NCCCC[C@@H](NC(=O)[C@@H](CC(=O)O)NC(=O)[C@@H](CC(=O)O)NC(=O)[C@@H](CC(=O)O)NC(=O)[C@@H](CC(=O)O)NC(=O)[C@@H](CC(=O)O)NC(=O)[C@@H](CC(=O)O)NC(=O)CCCCCNC(=O)CCC(=O)Nc4ncc(-c5ccc(C(=O)O)cc5)s4)C(=O)O)cc3C(=O)[O-])c3ccc(=[N+](C)C)cc-3oc2c1 |

Reference: ChEMBL document CHEMBL4152360 (Bioorg Med Chem, 2018)
